Laboratory results from PMC7391683, “Two glyoxylate reductase isoforms are functionally redundant but required under high photorespiration conditions in rice” (BMC Plant Biology, 2020).
Each block holds one molecule with its values, some of them ahead of it.

Experiments:
[1] = target: T1, OsGR2 (Oryza sativa, UniProt Q656T5); assay: NADH oxidation, Lineweaver-Burk; format: biochemical; details: glyoxylate fixed, pH 7.4, 30 °C
T1 construct: gene Os01g0574600; subunit about 37 kDa on SDS-PAGE
T1 sequence (Q656T5 45-341): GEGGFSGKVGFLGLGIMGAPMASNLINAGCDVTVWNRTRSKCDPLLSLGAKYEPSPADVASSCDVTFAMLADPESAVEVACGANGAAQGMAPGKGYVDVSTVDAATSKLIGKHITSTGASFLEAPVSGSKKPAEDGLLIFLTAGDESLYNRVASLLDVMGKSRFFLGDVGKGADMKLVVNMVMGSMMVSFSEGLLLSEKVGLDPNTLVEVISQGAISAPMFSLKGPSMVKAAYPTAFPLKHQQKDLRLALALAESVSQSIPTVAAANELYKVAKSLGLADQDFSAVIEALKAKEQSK
Source text: NADH oxidation, Lineweaver-Burk on OsGR2

[2] = target: T1, OsGR2; assay: NADPH oxidation, Lineweaver-Burk; format: biochemical; details: pH 7.4, 30 °C
Source text: NADPH oxidation, Lineweaver-Burk on OsGR2

[3] = target: T2, OsGR1 (Oryza sativa, UniProt Q84VC8); assay: NAD(P)H oxidation; slopes of reciprocal plots against oxalate; format: biochemical; details: read-out: Ki(oxalate) (mM) / Glyoxylate as substrate NADPH as cofactor
T2 construct: full-length, 6xHis-tag (pCold vector), E. coli Rosetta (DE3), Ni-IDA purified; subunit about 30 kDa on SDS-PAGE
T2 sequence (Q84VC8 1-293): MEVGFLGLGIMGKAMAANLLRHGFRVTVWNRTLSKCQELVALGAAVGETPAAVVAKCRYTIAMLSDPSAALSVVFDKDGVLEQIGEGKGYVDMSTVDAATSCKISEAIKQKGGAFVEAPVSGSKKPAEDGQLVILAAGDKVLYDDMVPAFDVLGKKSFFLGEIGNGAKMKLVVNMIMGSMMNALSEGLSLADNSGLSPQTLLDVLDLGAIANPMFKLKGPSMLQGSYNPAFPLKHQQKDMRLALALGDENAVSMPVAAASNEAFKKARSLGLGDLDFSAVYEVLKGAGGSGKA
Source text: NAD(P)H oxidation; slopes of reciprocal plots against oxalate on OsGR1

[4] = substrate: NC(=O)C1=CN([C@@H]2O[C@H](COP(=O)(O)OP(=O)(O)OC[C@H]3O[C@@H](n4cnc5c(N)ncnc54)[C@H](OP(=O)(O)O)[C@@H]3O)[C@@H](O)[C@H]2O)C=CC1; assay: NADPH oxidation, Lineweaver-Burk; format: biochemical, Oryza sativa; details: glyoxylate fixed, pH 7.4, 30 °C, varied: cofactor
Source text: (§1) NADPH oxidation, Lineweaver-Burk on OsGR1

[5] = substrate: O=CC(=O)O; assay: NADPH oxidation, Lineweaver-Burk; format: biochemical, Oryza sativa; details: NADPH fixed, pH 7.4, 30 °C
Source text: as §1

[6] = substrate: NC(=O)C1=CN([C@@H]2O[C@H](COP(=O)(O)OP(=O)(O)OC[C@H]3O[C@@H](n4cnc5c(N)ncnc54)[C@H](O)[C@@H]3O)[C@@H](O)[C@H]2O)C=CC1; assay: NADH oxidation, Lineweaver-Burk; format: biochemical, Oryza sativa; details: glyoxylate fixed, pH 7.4, 30 °C, varied: cofactor
Source text: NADH oxidation, Lineweaver-Burk on OsGR1

- Km [1]: 404 ± 66.5 µM
Molecule: NC(=O)C1=CN([C@@H]2O[C@H](COP(=O)(O)OP(=O)(O)OC[C@H]3O[C@@H](n4cnc5c(N)ncnc54)[C@H](O)[C@@H]3O)[C@@H](O)[C@H]2O)C=CC1 [NADH]

- Km ([2]; glyoxylate fixed): 53 ± 4.6 µM
Molecule: NC(=O)C1=CN([C@@H]2O[C@H](COP(=O)(O)OP(=O)(O)OC[C@H]3O[C@@H](n4cnc5c(N)ncnc54)[C@H](OP(=O)(O)O)[C@@H]3O)[C@@H](O)[C@H]2O)C=CC1 [NADPH]

- Km ([2]; NADPH fixed): 72.1 ± 5.3 µM
Molecule: O=CC(=O)O [glyoxylate]

- Ki [3]: 21.2 ± 4.3 mM
Molecule: O=C(O)C(=O)O [oxalate]

B1: OsGR1 (Oryza sativa Japonica Group) (protein)
chain: MEVGFLGLGIMGKAMAANLLRHGFRVTVWNRTLSKCQELVALGAAVGETPAAVVAKCRYTIAMLSDPSAALSVVFDKDGVLEQIGEGKGYVDMSTVDAATSCKISEAIKQKGGAFVEAPVSGSKKPAEDGQLVILAAGDKVLYDDMVPAFDVLGKKSFFLGEIGNGAKMKLVVNMIMGSMMNALSEGLSLADNSGLSPQTLLDVLDLGAIANPMFKLKGPSMLQGSYNPAFPLKHQQKDMRLALALGDENAVSMPVAAASNEAFKKARSLGLGDLDFSAVYEVLKGAGGSGKA
notes: full-length, 6xHis-tag (pCold vector), E. coli Rosetta (DE3), Ni-IDA purified; subunit about 30 kDa on SDS-PAGE
- Km [4]: 17.6 ± 3.1 µM
- Km [5]: 30.4 ± 3.5 µM
- Km [6]: 420.2 ± 50.5 µM
